The nature of data set [1]: Cognitive assessment battery before and after drug and chair ride. Particulars: for Mean Reaction Time: n = 15. It counts as in vivo, human. The source says: Test medications were taken two hours after finishing breakfast. […] On the study day, the subjects came to the lab, performed the cognitive testing battery and were observed taking the test medication. The time of drug ingestion was documented and the subjects returned three hours after taking the medication to complete the cognitive testing battery and ride in the chair. Prior to entering the chair, subjects received a standardized test briefing. Every minute during the testing, subjects were quizzed for motion sickness symptoms and asked to rate their own symptoms on a ratio scale. Testing continued until either 20 minutes elapsed, the subject requested testing stop, or severe nausea or vomiting was experienced (i.e., the subject reached a subjective 10 on their scale). Blood pressure, respiratory rate and pulse were measured before and after the chair ride using a Critikon DINAMAP® 1846-SX device.
A standard cognitive assessment battery (Dinges, et al. (1997) Sleep 20(4):267-7; Neri, et al. (1995) Aviat. Space Environ. Med 66(4):313-9; Richardson, et al. (1996) Sleep 19(9):718-26) used in studies of sleep deprivation (Jewett, et al. (1999) Sleep 22(2):171-9) was used which included both objective and subjective measures of performance and wakefulness. The overall battery takes 20 minutes to administer and has been used successfully on the Neurolab space shuttle mission to assess how sleep loss affected crewmembers.
The cognitive tests were performed three times for each chair ride. The first test served as a baseline, the second test was administered at the peak of drug effect and the last test was after the chair ride. In this design, the results of the second test reflect changes due to drug effect, while the results from the third test reflect a combination of drug effect and motion sickness effects.

In data set [2] the test system is motion sickness. In words: Off-vertical rotation chair motion sickness test. The class given is in vivo, human. The note with it: for Mean Time (chair time): ride 3 h after drug, placebo 7.2; for Mean Time (chair time) / Mean Motion Sickness Severity Score: n = 18; for Mean Motion Sickness Severity Score: end of chair ride, placebo 18.2. The source says:
Motion sickness was simulated by rotation in a tilted chair, also known as off-vertical rotation (Knox, et al. (1994) Laryngoscope 104(8 Pt 1):935-9; Woodard, et al. (1993) Aviat. Space Environ. Med. 64(5):363-6; Mowrey and Clayson (1982) Lancet 1(8273):655-7; Graybiel and Miller (1970) Aero. Med. 41(4):407-10). Off-vertical rotation produces motion sickness symptoms in more than 90% of subjects tested and has a high test-retest reliability. No provocative head motions are required which minimizes subject fatigue and training. For each run, the chair was tilted to 15 degrees off vertical, and accelerated at 5 degrees/sec^2 to 17.5 revolutions per minute. […] The subject was restrained with a seat belt and shoulder harness. The subject's head was also secured to the headrest with a strap to prevent head movements. Opaque goggles were placed over the subject's eyes.
The degree of motion sickness was assessed in three different ways. For the first method, the subjects were instructed how to use a well-known ratio scaling method (Bock and Oman (1982) Aviat. Space Environ. Med. 53(8):773-7) and were given a familiarization run in the chair to experience the motion sickness symptoms. The subjects were instructed to rate the peak overall discomfort they experienced in the familiarization ride as a “10” and to remember this level. They were instructed to rate all other levels of discomfort relative to this level. For example, discomfort which was half as severe would be rated as a “5”. This method is similar other well-known methods (see, e.g., Stott, et al. (1989) Br. J. Clin. Pharma. 27(2):147-57).
The second method was symptom recording. Prior to the familiarization run the subjects were instructed about the different symptoms that might occur (drowsiness, epigastric awareness, and the like). The subjects were asked about these symptoms each minute during the rotation and logged on a scoring sheet (Miller and Graybiel (1970) Aero. Med. 41(4):407-10), which was a variant of the Pensacola Diagnostic Rating Scale. The symptoms were assigned points and from these points, five levels of severity were determined (frank sickness, severe malaise, moderate malaise A, moderate malaise B, slight malaise).
The third method used to assess motion sickness was to record the total number of minutes the subject rides in the chair before stopping (Woodard, et al. (1993) supra; Mowrey and Clayson (1982) supra).
The studies employed a double-blind, placebo controlled, crossover design. […] The placebo was a single lactose capsule. […] The medications were labeled only with the subject's name, identification number and sequence of administration (i.e., Run 1, Run 2, Run 3). […] Both the research team and subjects were unaware of the order of administration.
Prior to the ride, subjects received a briefing on the symptoms they might experience, how to report those symptoms and instructions on when to stop the test. After the familiarization ride the subjects were instructed to remember their peak overall discomfort as a “10” and to rate all future symptoms relative to that baseline.
The subjects rode in the chair once for each treatment (low dose, high dose, and placebo) with at least one week between rides. A one week interval between rides is sufficient to prevent habituation to the rotating stimulus (Kohl (1987) Aviat. Space Environ. Med. 58(2):125-31; Stott, et al (1989) supra).
Test medications were taken two hours after finishing breakfast. […] On the study day, the subjects came to the lab, performed the cognitive testing battery and were observed taking the test medication. The time of drug ingestion was documented and the subjects returned three hours after taking the medication to complete the cognitive testing battery and ride in the chair. Prior to entering the chair, subjects received a standardized test briefing. Every minute during the testing, subjects were quizzed for motion sickness symptoms and asked to rate their own symptoms on a ratio scale. […]

A short description of data set [3]: Questionnaire about side effects after chair ride.

Entries after “also recorded” stand apart in the source; their conditions may differ.

Regarding `CN(C)CCC(c1ccc(Cl)cc1)c1ccccn1` (racemic) [chlorpheniramine], in data set [1] (4 mg and 12 mg doses), the “Performance in objective tests of addition, tracking and memory” value is on record as “does not affect performance; also recorded: not significantly affected”. Moreover, the “Mean Reaction Time” value in data set [1] (High Dose 12 mg, PostDrug) was 281.5 ms; in data set [1] (High Dose 12 mg, PostRide), 298.4 ms; in data set [1] (High Dose 12 mg, PreDrug (baseline before drug)) it was 265.1 ms; in data set [1] (Low Dose 4 mg, PostDrug), 286.1 ms; in data set [1] (Low Dose 4 mg, PostRide), 295.2 ms; in data set [1] (Low Dose 4 mg, PreDrug (baseline before drug)), 271.2 ms. Moreover, in data set [1] (High dose 12 mg, after chair rides, p<0.0001), the Karolinska sleepiness scores entry is recorded as “higher sleepiness scores”. Further, the “Reaction time (significance)” value in data set [1] (High dose 12 mg, after the chair rides, p=0.0002) is reported as “significantly increased”. In addition, the “Scores on the alert-sleepy mood scale” value in data set [1] (High dose 12 mg, p<0.0001) is given as “significantly changed toward the sleepy portion of the scale”. For the same compound, the “Scores on the clearheaded-groggy mood scale” value in data set [1] (High dose 12 mg, p<0.0001) was “significantly changed toward the groggy portion of the scale”. Further, the figures for the “Mean Time (chair time)” value in data set [2] (High Dose 12 mg chlorpheniramine capsule) and in data set [2] (Low Dose 4 mg chlorpheniramine capsule) were 11.7 min and 10.2 min, respectively. In addition, the “Mean Motion Sickness Severity Score” value in data set [2] (High Dose 12 mg) was 12.4; in data set [2] (Low Dose 4 mg) it was 16.4. The “Motion sickness severity score at end of chair ride (significance)” value in data set [2] (High dose 12 mg versus placebo (p=0.0004) and low dose (p=0.01)) is reported as “significantly less”. In addition, the “Increase of mean chair time versus placebo” value in data set [2] (High dose 12 mg, 7.2 to 11.7 minutes) is on record as 63%. The “Effect on chair time versus placebo (significance)” value in data set [2] (High dose 12 mg, p=0.001) is on record as “significantly increased chair time”. In addition, the “Subjects who increased chair time to the maximum (20 minutes)” value in data set [2] (of 18 subjects, rides stopped at 20 minutes) is “Three”. Further, in data set [3] (after chair rides, 18 subjects), the “Most commonly reported toxicities” value is “drowsiness and dry mouth”. Further, in data set [3] (chi-square analysis), the “Tendency to report a side effect with drug versus placebo” value is “did not reach statistical significance”.

For the origin of these results see patent US20040225019A1, “Methods of preventing or treating motion sickness” (priority 2003, published 2004).
